Data: PubChem BioAssay AID330 (DTP/NCI, 2004)
“And” between values parts separate entries of the source, which are not always exact repeats. Equal entries are not always repeated. Inconclusive results and toxic doses are left out. How the source made its calls: active means survival T/C of 150% or more; inactive means T/C below 125% in these data.

Tested on: P388 leukemia ip, CD2F1 mice, survival T/C
Test: NCI In Vivo Anticancer Drug Screen. Data for tumor model P388 Leukemia (intraperitoneal) in CD2F1 (CDF1) mice
Conditions: endpoint: median survival time, higher = longer survival
In short: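 Mice carrying the transplanted tumor received test compound or vehicle. Survival was recorded in each group, and the value is the treated-group measurement divided by that of the vehicle-treated control group.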

[1] = dose: 6.25 mg/kg/injection, schedule: Q01DX009 (ip), vehicle: saline
[2] = dose: 12.5 mg/kg/injection, schedule: Q01DX009 (ip), vehicle: saline
[3] = dose: 50.0 mg/kg/injection, schedule: Q01DX009 (ip), vehicle: saline
[4] = dose: 60.0 mg/kg/injection, schedule: Q01DX005 (ip), vehicle: Klucel (hydroxypropylcellulose) (HPC)
[5] = dose: 120.0 mg/kg/injection, schedule: Q01DX005 (ip), vehicle: Klucel (hydroxypropylcellulose) (HPC)
[6] = dose: 240.0 mg/kg/injection, schedule: Q01DX005 (ip), vehicle: Klucel (hydroxypropylcellulose) (HPC)
[7] = dose: 50.0 mg/kg/injection, schedule: Q01DX005 (ip), vehicle: Klucel (hydroxypropylcellulose) (HPC)
[8] = dose: 100.0 mg/kg/injection, schedule: Q01DX005 (ip), vehicle: Klucel (hydroxypropylcellulose) (HPC)
[9] = dose: 200.0 mg/kg/injection, schedule: Q01DX005 (ip), vehicle: Klucel (hydroxypropylcellulose) (HPC)
[10] = dose: 60.0 mg/kg/injection, schedule: Q01DX005 (ip), vehicle: saline with Tween-80
[11] = dose: 120.0 mg/kg/injection, schedule: Q01DX005 (ip), vehicle: saline with Tween-80
[12] = dose: 240.0 mg/kg/injection, schedule: Q01DX005 (ip), vehicle: saline with Tween-80
[13] = dose: 12.5 mg/kg/injection, schedule: Q01DX005 (ip), vehicle: Klucel (hydroxypropylcellulose) (HPC)
[14] = dose: 25.0 mg/kg/injection, schedule: Q01DX005 (ip), vehicle: Klucel (hydroxypropylcellulose) (HPC)
[15] = dose: 50.0 mg/kg/injection, schedule: Q01DX009 (ip), vehicle: saline with Tween-80
[16] = dose: 50.0 mg/kg/injection, schedule: Q04DX003 (ip), vehicle: saline
[17] = dose: 100.0 mg/kg/injection, schedule: Q01DX001 (ip), vehicle: Klucel (hydroxypropylcellulose) (HPC)
[18] = dose: 100.0 mg/kg/injection, schedule: Q04DX003 (ip), vehicle: saline
[19] = dose: 200.0 mg/kg/injection, schedule: Q01DX001 (ip), vehicle: Klucel (hydroxypropylcellulose) (HPC)
[20] = dose: 200.0 mg/kg/injection, schedule: Q04DX003 (ip), vehicle: saline
[21] = dose: 400.0 mg/kg/injection, schedule: Q01DX001 (ip), vehicle: Klucel (hydroxypropylcellulose) (HPC)

Measured: T/C

Cc1ccc(C2=Nc3ccccc3SC(c3cccc([N+](=O)[O-])c3)C2)cc1 (configuration not stated)
inactive: dose: 3.12 mg/kg/injection, schedule: Q01DX009 (ip), vehicle: saline 90 % of control | [1] 97 % of control | [2] 88 % of control | [3] 86 % of control

CS(=O)(=O)/C=C/c1cccnc1
inactive: dose: 50.0 mg/kg/injection, schedule: Q01DX009 (ip), vehicle: Klucel (hydroxypropylcellulose) (HPC) 101 % of control | dose: 100.0 mg/kg/injection, schedule: Q01DX009 (ip), vehicle: Klucel (hydroxypropylcellulose) (HPC) 99 % of control | dose: 200.0 mg/kg/injection, schedule: Q01DX009 (ip), vehicle: Klucel (hydroxypropylcellulose) (HPC) 103 % of control

CCc1nc(-c2ccccc2)nc2c1nc(-c1cccc(C)c1)n2Nc1ccccc1
inactive: [4] 97 % of control | [5] 94 % of control | [6] 88 % of control

NC(=O)C1C2C=CC(O2)C1C(=O)O (configuration not stated)
inactive: dose: 7.5 mg/kg/injection, schedule: Q01DX005 (ip), vehicle: saline 100 % of control | dose: 15.0 mg/kg/injection, schedule: Q01DX005 (ip), vehicle: saline 104 % of control | dose: 30.0 mg/kg/injection, schedule: Q01DX005 (ip), vehicle: saline 104 % of control

O=C1CC2(CCCC2)CC(=O)N1c1ccc(O)c(CN2CCOCC2)c1
inactive: dose: 100.0 mg/kg/injection, schedule: Q04DX002 (ip), vehicle: Klucel (hydroxypropylcellulose) (HPC) 97 % of control | dose: 200.0 mg/kg/injection, schedule: Q04DX002 (ip), vehicle: Klucel (hydroxypropylcellulose) (HPC) 89 % of control | dose: 400.0 mg/kg/injection, schedule: Q04DX002 (ip), vehicle: Klucel (hydroxypropylcellulose) (HPC) 90 % of control

CC(=O)Nc1ccc2c(=O)n(O)c(=O)[nH]c2c1
inactive: [7] 102 % of control | [8] 103 % of control | [9] 106 % of control

O=C1N(Cc2ccccc2)CCN1Cc1ccccc1
inactive: [7] 95 % of control | [8] 94 % of control | [9] 104 % of control

NCc1cccn1OCc1ccccc1
inactive: [10] 100 % of control | [11] 106 % of control | [12] 104 % of control

CC(C)(C)[Si](C)(C)O[C@H]1C[C@@H](O[Si](C)(C)C(C)(C)C)C=C1S(=O)(=O)c1ccccc1
inactive: [13] 101 % of control | [14] 107 % of control | [7] 111 % of control

CS/C(=N\S(=O)(=O)c1ccccc1)NNC(=O)c1c(-c2c(Cl)cccc2Cl)noc1C
inactive: [10] 100 % of control | [11] 100 % of control | [12] 91 % of control

CC1(O)OC(COc2ccc(Cl)cc2)COC1O (configuration not stated)
inactive: [10] 112 % of control | [11] 103 % of control

C[N+](C)(C)CC(O)c1ccc(O)c(O)c1 (configuration not stated)
inactive: [1] 113 % of control | [2] 100 % of control | dose: 25.0 mg/kg/injection, schedule: Q01DX009 (ip), vehicle: saline 97 % of control | [3] 100 % of control

NC(=S)N/N=C/c1ccccc1
inactive: dose: 12.5 mg/kg/injection, schedule: Q04DX003 (ip), vehicle: Klucel (hydroxypropylcellulose) (HPC) 116 % of control | dose: 25.0 mg/kg/injection, schedule: Q04DX003 (ip), vehicle: Klucel (hydroxypropylcellulose) (HPC) 109 % of control

CC(=O)C(c1ccccc1)[N+](C)(C)C (configuration not stated)
inactive: dose: 25.0 mg/kg/injection, schedule: Q04DX003 (ip), vehicle: other 100 % of control | dose: 50.0 mg/kg/injection, schedule: Q04DX003 (ip), vehicle: other 100 % of control | dose: 100.0 mg/kg/injection, schedule: Q04DX003 (ip), vehicle: other 98 % of control

NC(CCC(=O)OCCn1c2ccccc2c2ccccc21)C(=O)O (configuration not stated)
inactive: dose: 25.0 mg/kg/injection, schedule: Q01DX009 (ip), vehicle: saline with Tween-80 97 % of control | [15] 93 % of control | dose: 100.0 mg/kg/injection, schedule: Q01DX009 (ip), vehicle: saline with Tween-80 97 % of control

O=C(Oc1ccc(OC(=O)c2ccc([N+](=O)[O-])cc2)cc1)c1ccccc1
inactive: [16] 101 % of control | [17] 95 % of control | [18] 95 % of control | [19] 95 % of control | [20] 102 % of control | [21] 101 % of control | dose: 400.0 mg/kg/injection, schedule: Q04DX003 (ip), vehicle: saline 96 % of control

CN1CC[As+](Cc2ccccc2)(c2ccccc2)CC1
inactive: dose: 100.0 mg/kg/injection, schedule: Q01DX001 (ip), vehicle: saline 87 % of control | dose: 200.0 mg/kg/injection, schedule: Q01DX001 (ip), vehicle: saline 102 % of control | dose: 400.0 mg/kg/injection, schedule: Q01DX001 (ip), vehicle: saline 104 % of control

CC(C)N[P+](c1ccccc1)(c1ccccc1)c1ccccc1
inactive: dose: 25.0 mg/kg/injection, schedule: Q04DX003 (ip), vehicle: saline 96 % of control

COc1ccc(Cc2c(O)ccc3ccccc23)cc1
inactive: dose: 50.0 mg/kg/injection, schedule: Q01DX005 (ip), vehicle: saline with Tween-80 104 % of control | dose: 100.0 mg/kg/injection, schedule: Q01DX005 (ip), vehicle: saline with Tween-80 104 % of control | dose: 200.0 mg/kg/injection, schedule: Q01DX005 (ip), vehicle: saline with Tween-80 111 % of control

Cc1nc2cncnc2n(CCN2CCOCC2)c1=O
inactive: [4] 98 % of control | [5] 95 % of control | [6] 96 % of control

O=C(NC(Cc1c[nH]c2ccccc12)C(=O)O)c1ccccc1[N+](=O)[O-] (configuration not stated)
inactive: dose: 6.25 mg/kg/injection, schedule: Q01DX005 (ip), vehicle: Klucel (hydroxypropylcellulose) (HPC) 93 % of control | [13] 108 % of control | [14] 97 % of control

COc1ccc(/C(C#N)=C2\OC(=O)c3ccccc32)cc1OC
inactive: dose: 6.25 mg/kg/injection, schedule: Q01DX009 (ip), vehicle: saline with Tween-80 97 % of control | dose: 12.5 mg/kg/injection, schedule: Q01DX009 (ip), vehicle: saline with Tween-80 89 % of control | [15] 90 % of control | dose: 400.0 mg/kg/injection, schedule: Q01DX009 (ip), vehicle: saline with Tween-80 90 % of control

CC1(C)C=Cc2c(ccc3c(=O)c(-c4ccc5c(c4)OCO5)coc23)O1
inactive: dose: 25.0 mg/kg/injection, schedule: Q04DX002 (ip), vehicle: saline with Tween-80 107 % of control | dose: 50.0 mg/kg/injection, schedule: Q04DX002 (ip), vehicle: saline with Tween-80 101 % of control | dose: 100.0 mg/kg/injection, schedule: Q04DX002 (ip), vehicle: saline with Tween-80 99 % of control and 108 % of control

CC1NNC(=O)C1(Br)Br (configuration not stated)
inactive: dose: 6.25 mg/kg/injection, schedule: Q01DX009 (ip), vehicle: gum acacia 100 % of control | dose: 12.5 mg/kg/injection, schedule: Q01DX009 (ip), vehicle: gum acacia 91 % of control

CC(C)(C)NC(=O)NCCCCCCNC(=O)NC(C)(C)C
inactive: [10] 96 % of control | [11] 96 % of control | [12] 101 % of control

O=C1CC(C2(c3ccccc3)SCCCS2)CO1 (configuration not stated)
inactive: [17] 99 % of control | [19] 98 % of control | [21] 100 % of control

CC(=O)CC(C)c1ccc(C(C)CC(C)=O)o1 (configuration not stated)
inactive: [10] 104 % of control | [11] 106 % of control | [12] 104 % of control

CC(=O)Nc1c(Br)cc(Br)c2c1C(=O)c1ccccc1-2
inactive: [7] 91 % of control | [8] 91 % of control | [9] 97 % of control

COC1(c2ccccc2)C(c2ccccc2)=CC(c2ccccc2)=[N+]1[O-] (configuration not stated)
inactive: [16] 95 % of control | [18] 109 % of control | [20] 95 % of control

O=C1c2ccccc2C(=O)c2c(-c3ccc(Cl)cc3)noc21
inactive: [7] 94 % of control | [8] 93 % of control | [9] 90 % of control
